Measurements from paper PMC9412534, “Diindolylmethane Derivatives: New Selective Blockers for T-Type Calcium Channels” (Membranes, 2022).

What was measured:
[1] = target: T1, human CaV3.1 (Homo sapiens, UniProt O43497); experiment: T-type calcium channel window current FLIPR assay, CaV3.1; type: cell-based; settings: n = 3, read-out: IC50 CaV3.1 (LVA CaVs)
T1 construct: expressed in transfected cells; host or cells: HEK 293 T cells, transient transfection (FuGENE HD)
Protocol: (§1) The human embryonic kidney 293 (HEK 293) cell lines (from Emmanuel Bourinet, Montpellier, France) stably expressing CaV3.2 or CaV3.3 were cultured under 5% carbon dioxide at 37 °C in Dulbecco’s Modified Eagle Medium (DMEM) Glutamax (Gibco, Life Technologies, Carlsbad, CA, USA) supplemented with 10% (v/v) fetal bovine serum (FBS), 100 U/mL penicillin, 100 μg/mL streptomycin (Gibco, Life Technologies, Carlsbad, CA, USA), and 750 μg/mL geneticin (G418) (Gibco, Life Technologies). The Chinese Hamster Ovary (CHO) cell lines (Emmanuel Bourinet, Montpellier, France) expressing CaV3.1 were cultured under 5% carbon dioxide at 37 °C in Alpha Minimum Essential Media (MEM) Glutamax (Gibco, Life Technologies), supplemented with 10% (v/v) fetal bovine serum (FBS) and 300 μg/mL geneticin (G418) (Gibco, Life Technologies). The human neuroblastoma SH-SY5Y cells (Victor Diaz, Goettingen, Germany) were cultured under 5% carbon dioxide at 37 °C in RPMI 1640 antibiotic-free medium (Invitrogen, Carlsbad, CA, USA), supplemented with 15% FBS and 2 mM GlutaMAX™ (Invitrogen). D-PBS (Gibco, Life Technologies) was used to wash the cells, and 0.25% Trypsin-EDTA (Gibco, Life Technologies) was used to detach cells from the flask surface. They were split in a ratio of 1:5 (ideally 1000 cells/cm^2) when they reached 70–80% confluence (every 2–3 days). Transiently transfected CaV3.1 HEK293 T cells were used in FLIPR Assays. HEK 293 T cells were cultured under 5% carbon dioxide at 37 °C in DMEM supplemented with 10% (v/v) FBS. D-PBS was used to wash the cells, and 0.25% Trypsin-EDTA was used to detach cells from the flask surface. The cells were split and seeded at 6 million cells per T175 flask, to reach 70–80% confluence after 24 h. The next day, 12 μg DNA of human CaV3.1 was incubated in 900 μL serum-free DMEM with 36 μL FuGENE HD transfection reagent (Promega Corporation, Madison, WI, USA) (1:3 DNA/Fugene ratio) for 20 min, and then the mixture was added into the cell flask slowly, drop by drop. After the transfection, the cells were cultured under 5% carbon dioxide at 37 °C for 24 h and then moved to a 28 °C incubator.
(§2) HEK 293 cells stably expressing CaV3.2 or CaV3.3 were seeded into 384-well black wall clear bottom plates (Corning) at a density of 30,000 cells per well. Transiently transfected CaV3.1HEK293 T cells were seeded into 384-well black wall clear bottom plates at a density of 60,000 cells per well. Once the cells reached 90–95% confluence after 24 h, the media were removed from the wells and replaced with 20 μL of 10% calcium 4 dye (Molecular Devices, Sunnyvale, CA, USA) in HBSS-HEPES (containing 5 mM KCl, 10 mM HEPES, 140 mM NaCl, 10 mM glucose, and 0.5 mM CaCl2, pH 7.4) with 0.1% bovine serum albumin (BSA). The cells were incubated for 30 min at 37 °C in the presence of 5% carbon dioxide. Each well on the reagent plates for the first addition contained 15 μL different concentrations of compounds dissolved in HBSS-HEPES containing 0.1% BSA and <0.5% DMSO and was incubated for 20 min after loaded. Positive and negative controls contained 15 μL of HBSS-HEPES (0.1% BSA) alone. The plates were placed in the FLIPR^TETRA (Molecular Devices, Sunnyvale, CA, USA) programmed to measure maximum fluorescence intensity following a second addition of the agonist 5 mM CaCl2. The fluorescence readings were recorded and converted as described previously, and HBSS-HEPES (0.1% BSA) was used in the second addition as a negative control.

[2] = target: CaV3.2 (Homo sapiens, UniProt O95180); experiment: T-type calcium channel window current FLIPR assay, CaV3.2; type: cell-based; settings: FLIPR window current, n = 3; read-out: IC50 CaV3.2 (LVA CaVs)
Protocol: as §1, §2

[3] = target: CaV3.3 (Homo sapiens, UniProt Q9P0X4); experiment: T-type calcium channel window current FLIPR assay, CaV3.3; type: cell-based; settings: FLIPR window current; for IC50: n = 3, read-out: IC50 CaV3.3 (LVA CaVs)
Protocol: as §1, §2

[4] = target: T2, CaV2.2 (Homo sapiens, UniProt Q00975); experiment: HVA N-type calcium channel FLIPR assay in SH-SY5Y cells; type: cell-based; settings: 10 µM nifedipine present, n = 3, read-out: IC50 CaV2.2 (HVA CaVs)
T2 construct: endogenous in cells; host or cells: SH-SY5Y human neuroblastoma cells
Protocol: as §1
(§3) SH-SY5Y cells were seeded into 384-well black wall clear bottom plates at a density of 15,000 cells per well, resulting in 90–95% confluence after 24 h. The media were then removed from the wells and replaced with 20 μL of 10% calcium 4 dye (Molecular Devices) in physiological salt solution (PSS) (containing 5.9 mM KCl, 1.4 mM MgCl2, 10 mM HEPES, 1.2 mM NaH2 PO4, 5 mM NaHCO3, 140 mM NaCl, 11.5 mM glucose, and 1.8 mM CaCl2, pH 7.4) with 0.1% BSA. As reported, for N-type calcium channel FLIPR assays the cells were pre-incubated with 10 µM nifedipine added in the dye to ensure full inhibition of L-type calcium responses. For L-type calcium channel FLIPR assays, the cells were pre-incubated with 1 µM CVID added in the dye to ensure full inhibition of N-type calcium responses. Positive control on the first reagent plate contained 15 μL of PSS (0.1% BSA), whereas PSS (0.1% BSA) containing 1 µM CVID and 10 µM nifedipine (final concentration) was used as a negative control. The fluorescence readings were recorded and converted as described previously, and agonist containing 90 mM KCl + 5 mM CaCl2 was used in the second addition.

[5] = tested on: CaV1; experiment: HVA L-type calcium channel FLIPR assay in SH-SY5Y cells; type: cell-based, human; settings: 1 µM CVID present, n = 3, read-out: IC50 CaV1 (HVA CaVs)
Protocol: as §1, §3

[6] = tested on: MCF-7 cells; experiment: Cell viability MTT assay, MCF-7; type: cell-based, human; settings: Homo sapiens, 72 h treatment; for viability at 50 µM: MCF7, 50 µM, n = 4
Protocol: (§4) Human breast cancer cell line MCF-7 and T-47D, lung cancer cell line A549, and colon cancer cell line HT-29 were cultured under 5% carbon dioxide at 37 °C in DMEM Glutamax (Gibco, Life Technologies) supplemented with 10% (v/v) FBS. They were split in a ratio of 1:3–1:6 (ideally 2–4 × 10,000 cells/cm^2) when they reached 70–80% confluence using 0.25% Trypsin-EDTA. For cell viability MTT assay, cells were seeded into 96-well clear bottom culture plates (Corning, Lowell, MA, USA) at a density of 5 × 10^3 cells/well and settled at 37 °C for 24 h.
(§5) Seeded cells were treated with various concentrations of compounds for desired time period (24, 48 and 72 h). After the treatments, the media were removed from each well, and replaced with 25 μL of serum-free media and 25 μL of MTT Reagent (cat. no., ab211091; Abcam, Cambridge, MA, USA). The plate was then incubated at 37 °C for 3 h, and 75 μL of MTT Solvent (cat. no., ab211091; Abcam) was added into each well after incubation. The absorbance was evaluated at 590 nm. Cell-wells treated with 0.1% DMSO were used as positive control and no cell-wells were used as background control.

[7] = tested on: T-47D cells; experiment: Cell viability MTT assay, T-47D; type: cell-based, human; settings: Homo sapiens, T47D, 72 h treatment; for viability at 50 µM: n = 4
Protocol: as §4, §5

[8] = tested on: A549 cells; experiment: Cell viability MTT assay, A549; type: cell-based, human; settings: for viability at 50 µM: A549, 50 µM, n = 4
Protocol: as §4, §5

[9] = tested on: HT-29 cells; experiment: Cell viability MTT assay, HT-29; type: cell-based, human; settings: for viability at 50 µM: HT-29, 50 µM, n = 4; for preferential anti-proliferative activity on HT-29: versus MCF-7, T-47D, A549
Protocol: as §4, §5

[10] = Solubility in assay buffer with 0.1% BSA; type: physicochemical
[11] = tested on: voltage-gated calcium channels (VGCC); experiment: VGCC FLIPR cell-based assays, all channels (overall observation); design: species or system human
Protocol: as §2, §3

Chain of CaV3.3 (Q9P0X4 whole entry): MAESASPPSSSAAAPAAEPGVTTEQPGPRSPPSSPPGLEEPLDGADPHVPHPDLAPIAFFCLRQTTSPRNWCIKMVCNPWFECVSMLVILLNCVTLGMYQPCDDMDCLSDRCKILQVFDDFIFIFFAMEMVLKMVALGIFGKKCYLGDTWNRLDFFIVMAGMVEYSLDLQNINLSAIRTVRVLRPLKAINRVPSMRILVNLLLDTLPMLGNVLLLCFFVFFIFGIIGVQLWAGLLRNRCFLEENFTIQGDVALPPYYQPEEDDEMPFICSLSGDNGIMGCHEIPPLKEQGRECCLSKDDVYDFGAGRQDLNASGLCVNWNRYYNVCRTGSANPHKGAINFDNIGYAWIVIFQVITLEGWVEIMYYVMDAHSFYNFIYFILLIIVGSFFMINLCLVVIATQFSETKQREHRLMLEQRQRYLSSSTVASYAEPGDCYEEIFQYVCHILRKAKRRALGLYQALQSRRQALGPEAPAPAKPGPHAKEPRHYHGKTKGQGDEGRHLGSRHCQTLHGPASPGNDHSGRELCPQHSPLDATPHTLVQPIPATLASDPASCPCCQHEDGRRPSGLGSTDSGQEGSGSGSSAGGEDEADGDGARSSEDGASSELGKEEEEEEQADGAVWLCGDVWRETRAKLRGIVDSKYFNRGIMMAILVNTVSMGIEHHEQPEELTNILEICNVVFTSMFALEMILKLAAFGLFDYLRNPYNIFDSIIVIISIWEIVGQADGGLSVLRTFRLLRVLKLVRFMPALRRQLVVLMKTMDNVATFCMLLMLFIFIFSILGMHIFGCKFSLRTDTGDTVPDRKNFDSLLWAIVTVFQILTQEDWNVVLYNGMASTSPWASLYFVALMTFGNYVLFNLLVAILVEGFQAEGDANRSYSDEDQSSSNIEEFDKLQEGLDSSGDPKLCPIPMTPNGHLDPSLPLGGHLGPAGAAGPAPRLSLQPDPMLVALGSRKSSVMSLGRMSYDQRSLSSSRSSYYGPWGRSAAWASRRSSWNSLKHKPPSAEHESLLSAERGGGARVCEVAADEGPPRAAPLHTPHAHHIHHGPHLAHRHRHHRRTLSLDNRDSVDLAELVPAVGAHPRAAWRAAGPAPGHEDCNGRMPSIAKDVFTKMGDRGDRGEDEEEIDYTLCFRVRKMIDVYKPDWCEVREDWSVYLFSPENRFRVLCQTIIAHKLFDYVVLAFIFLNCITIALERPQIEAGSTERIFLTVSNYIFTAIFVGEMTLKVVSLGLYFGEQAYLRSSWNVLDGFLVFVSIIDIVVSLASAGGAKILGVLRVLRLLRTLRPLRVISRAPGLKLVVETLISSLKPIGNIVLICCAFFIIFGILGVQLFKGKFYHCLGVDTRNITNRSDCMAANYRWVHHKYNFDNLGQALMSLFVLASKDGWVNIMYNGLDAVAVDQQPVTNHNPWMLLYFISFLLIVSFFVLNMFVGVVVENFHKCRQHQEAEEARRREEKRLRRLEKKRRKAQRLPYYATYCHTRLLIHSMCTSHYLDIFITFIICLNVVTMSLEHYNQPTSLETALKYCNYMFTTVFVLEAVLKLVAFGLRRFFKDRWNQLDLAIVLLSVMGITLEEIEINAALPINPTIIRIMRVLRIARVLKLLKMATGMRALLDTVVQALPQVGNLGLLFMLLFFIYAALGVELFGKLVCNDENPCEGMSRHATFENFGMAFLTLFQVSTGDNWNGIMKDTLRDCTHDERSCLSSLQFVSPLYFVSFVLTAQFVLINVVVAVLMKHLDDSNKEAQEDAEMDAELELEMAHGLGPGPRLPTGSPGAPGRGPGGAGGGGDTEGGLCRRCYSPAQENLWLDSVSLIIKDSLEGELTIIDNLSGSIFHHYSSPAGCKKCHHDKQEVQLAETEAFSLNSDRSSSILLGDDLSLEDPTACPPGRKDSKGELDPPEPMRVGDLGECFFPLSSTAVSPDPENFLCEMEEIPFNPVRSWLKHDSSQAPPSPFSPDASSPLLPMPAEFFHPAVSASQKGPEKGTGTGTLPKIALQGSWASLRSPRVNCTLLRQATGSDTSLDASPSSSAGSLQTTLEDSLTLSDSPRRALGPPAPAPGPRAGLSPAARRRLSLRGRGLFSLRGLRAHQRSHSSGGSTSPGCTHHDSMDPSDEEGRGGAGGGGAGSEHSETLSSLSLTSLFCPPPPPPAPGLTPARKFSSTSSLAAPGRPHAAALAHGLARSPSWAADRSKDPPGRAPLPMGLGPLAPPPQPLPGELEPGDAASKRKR
T1 sequence (O43497 whole entry): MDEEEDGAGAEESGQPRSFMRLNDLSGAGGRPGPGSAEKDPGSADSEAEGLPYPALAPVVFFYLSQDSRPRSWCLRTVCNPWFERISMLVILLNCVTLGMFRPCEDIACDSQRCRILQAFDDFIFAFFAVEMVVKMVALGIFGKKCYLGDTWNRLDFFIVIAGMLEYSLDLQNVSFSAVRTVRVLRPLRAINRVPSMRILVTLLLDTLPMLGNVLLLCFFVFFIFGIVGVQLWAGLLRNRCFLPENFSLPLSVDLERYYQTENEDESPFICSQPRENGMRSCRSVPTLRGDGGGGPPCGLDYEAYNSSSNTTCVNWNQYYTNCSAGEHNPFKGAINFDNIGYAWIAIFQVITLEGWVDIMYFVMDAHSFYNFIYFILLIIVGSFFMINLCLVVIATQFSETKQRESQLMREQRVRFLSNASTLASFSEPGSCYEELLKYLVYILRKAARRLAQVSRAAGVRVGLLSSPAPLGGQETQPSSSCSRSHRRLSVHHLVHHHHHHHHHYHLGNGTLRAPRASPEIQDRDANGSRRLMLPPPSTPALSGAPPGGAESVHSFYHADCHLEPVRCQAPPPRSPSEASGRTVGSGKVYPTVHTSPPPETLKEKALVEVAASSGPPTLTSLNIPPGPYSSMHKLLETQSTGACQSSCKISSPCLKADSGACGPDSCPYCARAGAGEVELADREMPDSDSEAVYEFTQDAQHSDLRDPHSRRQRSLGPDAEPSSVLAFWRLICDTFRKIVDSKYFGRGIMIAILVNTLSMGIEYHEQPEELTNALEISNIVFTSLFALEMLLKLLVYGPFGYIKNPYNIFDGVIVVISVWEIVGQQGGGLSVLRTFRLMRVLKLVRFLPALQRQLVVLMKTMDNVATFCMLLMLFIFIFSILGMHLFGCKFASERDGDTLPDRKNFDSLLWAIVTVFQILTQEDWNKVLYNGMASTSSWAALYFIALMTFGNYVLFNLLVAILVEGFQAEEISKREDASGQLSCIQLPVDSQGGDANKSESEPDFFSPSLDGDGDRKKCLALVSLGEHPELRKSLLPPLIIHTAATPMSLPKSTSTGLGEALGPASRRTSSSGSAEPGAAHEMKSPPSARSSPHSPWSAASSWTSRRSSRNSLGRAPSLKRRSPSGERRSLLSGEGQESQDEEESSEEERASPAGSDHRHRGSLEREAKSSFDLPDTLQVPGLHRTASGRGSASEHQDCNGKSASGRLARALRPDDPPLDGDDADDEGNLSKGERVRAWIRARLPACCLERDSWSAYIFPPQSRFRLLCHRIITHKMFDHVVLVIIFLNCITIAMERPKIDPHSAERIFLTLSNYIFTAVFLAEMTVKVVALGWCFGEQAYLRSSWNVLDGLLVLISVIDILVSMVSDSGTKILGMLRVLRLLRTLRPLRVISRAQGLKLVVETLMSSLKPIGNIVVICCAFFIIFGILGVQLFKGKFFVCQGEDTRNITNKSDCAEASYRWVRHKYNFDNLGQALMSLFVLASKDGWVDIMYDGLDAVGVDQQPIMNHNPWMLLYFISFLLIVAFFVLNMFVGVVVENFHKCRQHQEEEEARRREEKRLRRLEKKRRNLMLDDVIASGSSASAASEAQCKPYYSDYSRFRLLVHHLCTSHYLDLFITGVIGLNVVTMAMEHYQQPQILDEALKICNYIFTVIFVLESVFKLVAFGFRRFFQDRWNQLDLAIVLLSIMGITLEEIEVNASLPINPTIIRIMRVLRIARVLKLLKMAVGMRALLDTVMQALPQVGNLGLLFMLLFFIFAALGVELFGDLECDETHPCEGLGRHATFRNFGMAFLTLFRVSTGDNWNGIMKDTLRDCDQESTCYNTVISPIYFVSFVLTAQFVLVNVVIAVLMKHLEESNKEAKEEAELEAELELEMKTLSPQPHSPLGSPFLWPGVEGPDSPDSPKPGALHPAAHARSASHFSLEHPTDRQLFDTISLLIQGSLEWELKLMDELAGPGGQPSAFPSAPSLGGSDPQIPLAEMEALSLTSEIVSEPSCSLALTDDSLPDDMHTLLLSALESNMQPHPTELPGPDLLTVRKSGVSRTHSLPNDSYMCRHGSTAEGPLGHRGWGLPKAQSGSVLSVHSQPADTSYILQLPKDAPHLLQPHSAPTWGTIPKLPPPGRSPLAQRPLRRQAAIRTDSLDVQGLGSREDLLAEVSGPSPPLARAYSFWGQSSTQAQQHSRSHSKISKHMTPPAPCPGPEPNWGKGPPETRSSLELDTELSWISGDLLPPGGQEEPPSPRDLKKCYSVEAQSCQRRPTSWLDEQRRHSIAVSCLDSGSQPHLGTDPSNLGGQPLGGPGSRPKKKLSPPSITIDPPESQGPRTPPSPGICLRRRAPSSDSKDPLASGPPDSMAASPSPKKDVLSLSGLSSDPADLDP

SMILES | IC50 [1] [µM] | IC50 [2] [µM] | inhibition against CaV3.3 [3] | IC50 [3] [µM] | IC50 [4] [µM] | IC50 [5] [µM] | solubility in buffer [10] | IC50 ([6]; MCF7, 72 h, n = 3) [µM] | IC50 ([7]; 72 h, n = 3) [µM] | IC50 ([8]; Homo sapiens, A549, 72 h, 72 h treatment, n = 3) [µM] | IC50 ([9]; Homo sapiens, HT-29, 72 h, 72 h treatment, n = 3) [µM] | viability at 50 µM [6] [%] | viability at 50 µM [7] [%] | effect on A549 cell proliferation ([8]; 50 µM, 72 h) | viability at 50 µM ([8]; Homo sapiens, 72 h treatment) [%] | viability at 50 µM ([9]; Homo sapiens, 72 h treatment) [%] | preferential anti-proliferative activity on HT-29 [9] | inhibition of all the Ca2+ responses [11] | better antiproliferative effect on HT-29 cell viability than on the other three cancer cell lines ([9]; 72 h treatment) [fold]
O=C(c1cn(S(=O)(=O)O)c2ccccc12)c1cn(S(=O)(=O)O)c2ccccc12 [XI, 3,3'-carbonylbis(1H-indole-1-sulfonic acid)] | – | – | – | – | – | – | highly insoluble | – | – | – | – | – | – | – | – | – | – | – | –
O=C(c1c[nH]c2cc(Br)ccc12)c1cn(S(=O)(=O)O)c2cc(Br)ccc12 [V] | 92.1 ± 4.69 | 67.5 ± 6.05 | – | 92.6 ± 1.46 | 90.2 ± 4.93 | 88.2 ± 7.95 | – | 51 | 38 | 27 | 15 | 29.52 ± 0.19 | 31.4 ± 0.43 | – | 14.1 ± 0.15 | 0.93 ± 0.06 | preferential anti-proliferative activity | poor inhibition | ≥ 2

Now from value to compound, other results behind:

IC50 [1] [µM] | IC50 [2] [µM] | inhibition against CaV3.3 [3] | IC50 [3] [µM] | IC50 [4] [µM] | IC50 [5] [µM] | solubility in buffer [10] | IC50 ([6]; MCF7, 72 h, n = 3) [µM] | IC50 ([7]; 72 h, n = 3) [µM] | IC50 ([8]; Homo sapiens, A549, 72 h, 72 h treatment, n = 3) [µM] | IC50 ([9]; Homo sapiens, HT-29, 72 h, 72 h treatment, n = 3) [µM] | SMILES | viability at 50 µM [6] [%] | viability at 50 µM [7] [%] | effect on A549 cell proliferation ([8]; 50 µM, 72 h) | viability at 50 µM ([8]; Homo sapiens, 72 h treatment) [%] | viability at 50 µM ([9]; Homo sapiens, 72 h treatment) [%] | preferential anti-proliferative activity on HT-29 [9] | inhibition of all the Ca2+ responses [11] | better antiproliferative effect on HT-29 cell viability than on the other three cancer cell lines ([9]; 72 h treatment) [fold]
58.8 ± 6.85 | 106 ± 11.8 | moderate inhibition | 17.8 ± 4.64 | 60.9 ± 3.37 | 192 ± 30.5 | – | – | – | – | – | O=C(c1c[nH]c2ccccc12)c1cn(S(=O)(=O)O)c2ccccc12 [III] | 84.9 ± 5.75 | 79.7 ± 3.74 | promoted A549 cell proliferation | 211 ± 4.69 | 21.6 ± 1.1 | preferential anti-proliferative activity | – | –
53.4 ± 0.93 | 99.9 ± 3.56 | – | 78.3 ± 4.79 | 54.5 ± 1.84 | 47.9 ± 1.37 | – | – | – | – | – | Cc1ccc(S(=O)(=O)n2cc(C(=O)c3cn(S(=O)(=O)c4ccc(C)cc4)c4ccccc34)c3ccccc32)cc1 [X] | – | – | – | – | – | – | poor inhibition | –
154 ± 18.1 | > 200 | – | > 200 | 53.8 ± 2.43 | > 200 | – | – | – | – | – | CCOC(=O)C(=O)c1c[nH]c2ccccc12 [VI] | – | – | – | – | – | – | poor inhibition | –
43.5 ± 3.72 | 17.1 ± 1.87 | – | 13.8 ± 2.02 | 32.1 ± 3.01 | 32.1 ± 0.84 | – | – | – | – | – | CCOC(=O)C(=O)c1cn(S(=O)(=O)c2ccc(C)cc2)c2ccccc12 [VII] | – | – | – | – | – | – | – | –
